Columns and labels:
Experiment in all cases: Tumor cell proliferation inhibition (Promega cell viability, 72 h)
Assay type in all cases: cell-based
HCT15 = details: Homo sapiens, HCT-15, HCT15 cells, read-out: Anti-proliferation IC50
Procedure: (§1) The cell lines used in the experiment are various tumor cells, including DU4475, Colo205, HepG2, PLC/PRF/5, BT-20, LS174T, NCI-H929, HCT116, SW620, SK-CO-1, SW480, DLD1, HT-29, SW900, SW1417, HuH7, H2009, PANC-1, SW48, Duadi, H358, HCT15, 22Rv1, Hela, RKO, Raji, Jurkat, NCI-H716, MDA-MB-231, NCI-H157 and THP1, and the inhibitory effect of the compound of the present disclosure on the proliferation of these tumor cells is determined, in order to screen out sensitive cell types of the compound of the present disclosure.
(§2) DU4475, Colo205, HepG2, PLC/PRF/5, BT-20, LS174T, NCI-H929, HCT116, SW620, SK-CO-1, SW480, DLD1, HT-29, SW900, SW1417, HuH7, H2009, PANC-1, SW48, Duadi, H358, HCT15, 22Rv1, Hela, RKO, Raji, Jurkat, NCI-H716, MDA-MB-231, NCI-H157 and THP1 cell lines cultured in each medium were treated during the logarithmic growth phase, and the cells were collected and prepared into a uniform cell suspension of known concentration, and then added to the 96-well cell culture plate to make each well contain 1000 cells. Put it into a 5% CO2 incubator and incubate at 37° C. for 20-24 h. The next day, the fully dissolved 3-fold gradient diluted compound was added to each cell culture well, so that the final maximum concentration in the cell culture well was 20 μM, and the culture was continued for 72 hours. In this test, Promega's cell viability detection test is used for detection. The more the cells proliferate, the stronger the final signal intensity will be. The detection instrument is SpectraMax, full wavelength mode. The wells with only DMSO added were used as positive control wells, and the wells without cells inoculated were used as negative control wells. The IC50 value of each compound for different cell proliferation inhibition was calculated to evaluate the inhibitory effect of the compound on different tumor cells.

SW1417 = details: Homo sapiens, SW1417 cells, read-out: Anti-proliferation IC50
Procedure: as §1, §2

NCI-H716 = details: Homo sapiens, NCI-H716 cells, read-out: Anti-proliferation IC50
Procedure: as §1, §2

PANC-1 = details: Homo sapiens, PANC-1 cells, read-out: Anti-proliferation IC50
Procedure: as §1, §2

22Rv1 = details: Homo sapiens, 22Rv1 cells, read-out: Anti-proliferation IC50
Procedure: as §1, §2

HepG2 = details: Homo sapiens, HepG2 cells, read-out: Anti-proliferation IC50
Procedure: as §1, §2

LS174T = details: Homo sapiens, LS174T cells, read-out: Anti-proliferation IC50
Procedure: as §1, §2

NCI-H157 = details: Homo sapiens, NCI-H157 cells, read-out: Anti-proliferation IC50
Procedure: as §1, §2

MDA-MB-231 = details: Homo sapiens, MDA-MB-231 cells, read-out: Anti-proliferation IC50
Procedure: as §1, §2

Duadi = Duadi cells, read-out: Anti-proliferation IC50
Procedure: as §1, §2

H2009 = details: Homo sapiens, NCI-H2009, H2009 cells, read-out: Anti-proliferation IC50
Procedure: as §1, §2

RKO = details: Homo sapiens, RKO cells, read-out: Anti-proliferation IC50
Procedure: as §1, §2

PLC/PRF/5 = details: Homo sapiens, PLC/PRF/5 cells, read-out: Anti-proliferation IC50
Procedure: as §1, §2

SK-CO-1 = details: Homo sapiens, SK-CO-1 cells, read-out: Anti-proliferation IC50
Procedure: as §1, §2

HT-29 = details: Homo sapiens, HT-29 cells, read-out: Anti-proliferation IC50
Procedure: as §1, §2

SW48 = details: Homo sapiens, SW48 cells, read-out: Anti-proliferation IC50
Procedure: as §1, §2

SW620 = details: Homo sapiens, SW-620, SW620 cells, read-out: Anti-proliferation IC50
Procedure: as §1, §2

H358 = details: Homo sapiens, NCI-H358, H358 cells, read-out: Anti-proliferation IC50
Procedure: as §1, §2

BT-20 = details: Homo sapiens, BT-20 cells, read-out: Anti-proliferation IC50
Procedure: as §1, §2

HuH7 = details: Homo sapiens, Huh-7, HuH7 cells, read-out: Anti-proliferation IC50
Procedure: as §1, §2

Jurkat = details: Homo sapiens, Jurkat cells, read-out: Anti-proliferation IC50
Procedure: as §1, §2

Hela = details: Homo sapiens, Hela cells, read-out: Anti-proliferation IC50
Procedure: as §1, §2

Raji = details: Homo sapiens, Raji cells, read-out: Anti-proliferation IC50
Procedure: as §1, §2

SW900 = details: Homo sapiens, SW900 cells, read-out: Anti-proliferation IC50
Procedure: as §1, §2

Colo205 = details: Homo sapiens, COLO 205, Colo205 cells, read-out: Anti-proliferation IC50
Procedure: as §1, §2

DLD1 = details: Homo sapiens, DLD-1, DLD1 cells, read-out: Anti-proliferation IC50
Procedure: as §1, §2

[2H]C([2H])([2H])N1c2nc(NCc3ccc(Oc4cnc(C(F)(F)F)nc4)nc3)nc3c2N(CCC3)C(=O)[C@]1(C)CO [AN10250399]
IC50 (HCT15): > 10000 nM | IC50 (SW1417): 170 nM | IC50 (NCI-H716): > 10000 nM | IC50 (PANC-1): 140 nM | IC50 (22Rv1): > 10000 nM | IC50 (HepG2): 128 nM | IC50 (LS174T): 102 nM | IC50 (NCI-H157): > 10000 nM | IC50 (MDA-MB-231): > 10000 nM | IC50 (Duadi): > 10000 nM | IC50 (H2009): 214 nM | IC50 (RKO): > 10000 nM | IC50 (PLC/PRF/5): 62.6 nM | IC50 (SK-CO-1): 341 nM | IC50 (HT-29): 131 nM | IC50 (SW48): > 10000 nM | IC50 (SW620): 100 nM | IC50 (H358): > 10000 nM | IC50 (BT-20): 135 nM | IC50 (HuH7): 106 nM | IC50 (Jurkat): > 10000 nM | IC50 (Hela): > 10000 nM | IC50 (Raji): > 10000 nM | IC50 (SW900): 57.2 nM | IC50 (Colo205): 43 nM | IC50 (DLD1): 96.6 nM

Cc1nc(C(F)(F)F)ncc1Oc1ccc(CNc2nc(C)c3c(n2)N(C)[C@@H](C)C(=O)N3)cn1 [AN10250484]
IC50 (HCT15): > 10000 nM | IC50 (SW1417): 33.4 nM | IC50 (NCI-H716): > 10000 nM | IC50 (PANC-1): 47.5 nM | IC50 (22Rv1): > 10000 nM | IC50 (HepG2): 11 nM | IC50 (LS174T): 26.3 nM | IC50 (NCI-H157): > 10000 nM | IC50 (MDA-MB-231): > 10000 nM | IC50 (Duadi): > 10000 nM | IC50 (H2009): 91.7 nM | IC50 (RKO): > 10000 nM | IC50 (PLC/PRF/5): 18 nM | IC50 (SK-CO-1): 285 nM | IC50 (HT-29): 352 nM | IC50 (SW48): > 10000 nM | IC50 (SW620): 284 nM | IC50 (H358): > 10000 nM | IC50 (BT-20): 22 nM | IC50 (HuH7): 61.3 nM | IC50 (Jurkat): > 10000 nM | IC50 (Hela): > 10000 nM | IC50 (Raji): > 10000 nM | IC50 (SW900): 26.6 nM | IC50 (Colo205): 9 nM | IC50 (DLD1): 315 nM
